Measurements published in the supplement of paper PMC10307832.

Legend:
Experiment in all cases: relative viability (nuclei count vs DMSO), 5 days (fraction); higher = more cells survive
[1] = compound: C1CC(C1)(C(=O)O)C(=O)O.[NH2-].[NH2-].[Pt+2] [Carboplatin] + Nc1ncn([C@H]2C[C@H](O)[C@@H](CO)O2)c(=O)n1 [Decitabine] (partner 2 µM)
Method in brief: (§1)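 For relative viability, nuclei counts in treated wells were divided by those in vehicle wells. Lung cancer cell lines had been pin-tool dosed in 1536-well plates the day after seeding and cultured for 5 days, then fixed and stained in one step (final 0.05% Triton X-100, 1% formaldehyde, 1 ug/ml Hoechst) and imaged at 4×. Doses were one drug alone or a fixed anchor-drug dose plus five library-drug doses (not always all listed) in √10 steps, and values are duplicate-plate medians.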

[2] = compound: C1CC(C1)(C(=O)O)C(=O)O.[NH2-].[NH2-].[Pt+2] [Carboplatin] + N=C(N)NC(=N)NCCc1ccccc1 [Phenformin] (partner 250 µM)
Method in brief: as §1

[3] = compound: CC[C@H](C)N1C=C(C2=C(C=C(C=C21)C3=CN=C(C=C3)N4CCNCC4)C(=O)NCC5=C(C=C(NC5=O)C)C)C [GSK126] + Cc1nc(NC(=O)N2CCC[C@H]2C(N)=O)sc1-c1ccnc(C(C)(C)C(F)(F)F)c1 [Alpelisib] (partner 2 µM)
Method in brief: as §1

[4] = compound: NS(=O)(=O)OC[C@@H]1C[C@@H](n2ccc3c(N[C@H]4CCc5ccccc54)ncnc32)C[C@@H]1O [MLN4924] + CS(=O)(=O)CCNCc1ccc(-c2ccc3ncnc(Nc4ccc(OCc5cccc(F)c5)c(Cl)c4)c3c2)o1 [Lapatinib] (partner 2 µM)
Method in brief: as §1

Cell Line | relative viability ([1]; first compound 0.08 µM) | relative viability ([1]; first compound 0.253 µM) | relative viability ([1]; first compound 0.8 µM) | relative viability ([1]; first compound 2.53 µM) | relative viability ([1]; first compound 8 µM) | relative viability ([2]; first compound 0.08 µM) | relative viability ([2]; first compound 0.253 µM) | relative viability ([2]; first compound 0.8 µM) | relative viability ([2]; first compound 2.53 µM) | relative viability ([2]; first compound 8 µM) | relative viability ([3]; first compound 0.08 µM) | relative viability ([3]; first compound 0.253 µM) | relative viability ([3]; first compound 0.8 µM) | relative viability ([3]; first compound 2.53 µM) | relative viability ([3]; first compound 8 µM) | relative viability ([4]; first compound 0.04 µM) | relative viability ([4]; first compound 0.1265 µM) | relative viability ([4]; first compound 0.4 µM) | relative viability ([4]; first compound 1.265 µM) | relative viability ([4]; first compound 4 µM)
EPLC-272H | 0.402 | 0.403 | 0.361 | 0.366 | 0.355 | 0.345 | 0.347 | 0.309 | 0.298 | 0.313 | 1.05 | 0.997 | 0.919 | 0.951 | 0.902 | 0.848 | 0.805 | 0.106 | 0.119 | 0.165
LCLC-97TM1 | 0.299 | 0.206 | 0.208 | 0.218 | 0.191 | 0.483 | 0.399 | 0.421 | 0.438 | 0.394 | 0.254 | – | 0.22 | 0.374 | 0.217 | 0.853 | 0.798 | 0.189 | 0.11 | 0.137
LK-2 | 0.287 | 0.33 | 0.279 | 0.289 | 0.335 | 0.683 | 0.47 | 0.343 | 0.398 | 0.563 | 1.09 | 0.993 | 0.734 | 1.13 | 0.876 | 0.521 | 0.656 | 0.638 | 0.272 | 0.257
NCI-H322M | 0.74 | 0.723 | 0.711 | 0.763 | 0.62 | 0.884 | 0.738 | 0.775 | 0.74 | 0.712 | 0.819 | 0.836 | 0.817 | 0.78 | 0.737 | 0.796 | 1.01 | 1.19 | 0.301 | 0.285
NCI-H2126 | 0.607 | 0.573 | 0.544 | 0.59 | 0.51 | 0.591 | 0.525 | 0.537 | 0.503 | 0.492 | 0.789 | 0.749 | 0.753 | 0.737 | 0.811 | 0.724 | 0.762 | 0.406 | 0.241 | 0.261
NCI-H596 | 1.16 | 1.13 | 0.986 | 0.958 | 0.629 | 0.871 | 0.767 | 0.768 | 0.638 | 0.67 | 0.681 | 0.445 | 0.397 | 0.51 | 0.556 | 1.1 | 1.05 | 0.438 | 0.397 | 0.38
LU99A | 0.862 | 0.869 | 0.864 | 0.731 | 0.724 | 0.958 | 0.854 | 0.738 | 0.809 | 0.647 | 0.554 | 0.512 | 0.52 | 0.572 | 0.594 | 0.779 | 0.339 | 0.294 | 0.145 | 0.151
NCI-H1666 | 0.715 | 0.824 | 0.774 | 0.752 | 0.653 | 0.612 | 0.6 | 0.531 | 0.565 | 0.49 | 1 | 0.964 | 1.05 | 0.962 | 1.12 | 0.382 | 0.307 | 0.305 | 0.159 | 0.211
NCI-H520 | 0.551 | 0.545 | 0.449 | 0.457 | 0.438 | 0.677 | 0.595 | 0.725 | 0.585 | 0.54 | 0.946 | 0.758 | 0.931 | 0.864 | 0.783 | 0.594 | 0.437 | 0.323 | 0.17 | 0.162
